Read-outs that look alike come from different tables or passages of the source.
Legend:
[1] = test system: P. falciparum NF54 erythrocytic stages; experiment: Activity against Plasmodium falciparum (3H-hypoxanthine incorporation); assay type: cell-based; settings: for Selectivity index (SI): IC50 in L6 cells divided by IC50 in P. falciparum: L6 cells vs P. falciparum NF54; for IC50: mean ± absolute deviation
Procedure: In vitro activity against the erythrocytic stages of P. falciparum was determined using a ^3H-hypoxanthine incorporation assay ([Desjardins et al., 1979]), using the drug sensitive NF54 strain ([Ponnudurai et al., 1981]). Compounds were dissolved in DMSO at 10 mg/ml and further diluted in medium before addition to parasite cultures incubated in RPMI 1640 medium without hypoxanthine, supplemented with HEPES (5.94 g/L), NaHCO3 (2.1 g/L), neomycin (100 U/ml), Albumax^R (5 g/L), and washed human red cells A^+ at 2.5% haematocrit (0.3% parasitemia). Serial drug dilutions of 11 three-fold dilution steps covering a range from 100 to 0.002 μg/ml were prepared. The 96-well plates were incubated in a humidified atmosphere at 37°C; 4% CO2, 3% O2, 93% N2. After 48 h, 50 μl of ^3H-hypoxanthine (=0.5 μCi) was added to each well of the plate. The plates were incubated for a further 24 h under the same conditions. The plates were then harvested with a Betaplate™ cell harvester (Wallac, Zurich, Switzerland), the red blood cells transferred onto a glass fibre filter, and lysed with distilled water. The dried filters were inserted into a plastic foil with 10 ml of scintillation fluid and counted in a Betaplate™ liquid scintillation counter (Wallac, Zurich, Switzerland). IC50 values were calculated from sigmoidal inhibition curves by linear regression using Microsoft Excel. Chloroquine (Sigma C6628) was used as control. Assays were performed in two independent replicates at least.

[2] = test system: T. b. rhodesiense STIB 900 bloodstream forms; experiment: Activity against Trypanosoma brucei rhodesiense STIB900 (resazurin); assay type: cell-based; settings: for Selectivity index (SI): IC50 in L6 cells divided by IC50 in T. b. rhodesiense: L6 cells vs T. b. rhodesiense STIB 900; for IC50: Trypanosoma brucei, 70 h, STIB 900 bloodstream forms, 70 h + resazurin, mean ± absolute deviation
Procedure: The stock was originally isolated from a patient and adapted to axenic culture conditions after several mouse passages and cloned. Minimum Essential Medium (50 µl) supplemented with 25 mM HEPES, 1 g/L additional glucose, 1% MEM non-essential amino acids (100×), 0.2 mM 2-mercaptoethanol, 1 mM Na-pyruvate ([Baltz et al., 1985]) and 15% heat inactivated horse serum was added to each well of a 96-well microtiter plate. Serial drug dilutions of eleven 3-fold dilution steps covering a range from 100 to 0.002 μg/ml were prepared. Then 4 × 10^3 bloodstream forms of T. b. rhodesiense STIB 900 in 50 µL were added to each well and the plate incubated for 70 h at 37°C and under a 5% CO2 atmosphere. 10 µL resazurin solution (resazurin, 12.5 mg in 100 ml double-distilled water) was then added to each well and incubation continued for a further 2–4 h ([Räz et al., 1997]). Plates were read with a Spectramax Gemini XS microplate fluorometer (Molecular Devices Cooperation, Sunnyvale, CA, USA) using an excitation wavelength of 536 nm and an emission wavelength of 588 nm. […] Melarsoprol (Arsobal Sanofi-Aventis, received from WHO) was used as control. Assays were performed in two independent replicates at least.

[3] = Cytotoxicity to macrophages determined in parallel to the intramacrophage assay; assay type: cell-based; settings: CDI, surviving, uninfected mouse peritoneal macrophages
Procedure: (§1) Macrophages were isolated from the mouse (CDI) peritoneal cavity ([Zhang et al., 2008]) using 2% starch solution as eliciting agent injected 2 day prior to cell harvest. Animal work was carried out according to the rules and regulations for the protection of animal rights (“Tierschutzverordnung”) of the Swiss “Bundesamt für Veterinärwesen” (License number 2374). Mouse peritoneal macrophages (4 × 10^4 in 100 µL RPMI 1640 medium with 10% heat-inactivated FBS) were seeded into wells of a 96-well plate. After 24 h, 2 × 10^5 amastigote L. donovani in 100 µL were added. The amastigotes were taken from an axenic amastigote culture grown at pH 5.4. The medium containing free amastigote forms was removed after 24 h and replaced with fresh medium. The washing step was repeated and afterward the serial drug dilution was prepared with at least 6 dilution steps. Compounds were dissolved in DMSO at 10 mg/ml and further diluted in medium. After 96 h of incubation at 37°C under a 5% CO2 atmosphere, the medium was removed, and cells were fixed by adding 50 µl 4% formaldehyde solution followed by a staining with a 5 µM DRAQ5 solution. Plates were imaged in ImageXpress XLS (MD) microscope using a 20× air objective (635 nm excitation: 690/50 emission). 9 images were collected per well. Automated image analysis was performed with a script developed on Meta Xpress Software (MD). Three outputs were provided for each well: i) number of host cell nuclei; ii) numbers of infected and non-infected host cells; iii) number of parasite nuclei per infected host cell. The IC50 values were calculated based on the infection rate and the numbers of intracellular amastigotes. The cytotoxicity to macrophages was determined in parallel, and IC50 values were calculated based on the numbers of surviving, uninfected macrophages. Miltefosine was used as control. Assays were performed in two independent replicates at least.

[4] = test system: L. donovani amastigotes in mouse peritoneal macrophages; experiment: Activity against Leishmania donovani intramacrophage amastigotes (high-content imaging); assay type: cell-based; settings: Leishmania donovani, Peritoneal macrophage, 96 h, read-out: IC50 L. donovani Intramacrophage
Procedure: as §1

[5] = test system: L. donovani strain MHOM/ET/67/L82 axenic amastigotes; experiment: Activity against Leishmania donovani axenic amastigotes (resazurin); assay type: cell-based; settings: for Selectivity index (SI): IC50 in L6 cells divided by IC50 in L. donovani axenic amastigotes: L6 cells vs axenic L. donovani; for IC50: Leishmania donovani, mean ± absolute deviation, at least two replicates
Procedure: Amastigotes of L. donovani strain MHOM/ET/67/L82 were grown under an atmosphere of 5% CO2 in air in axenic culture at 37°C in SM medium ([Cunningham, 1977]) at pH 5.4 supplemented with 10% heat-inactivated fetal bovine serum. 50 µL of culture medium was added in the wells of a 96-well plate and serial drug dilutions of eleven three-fold dilution steps covering a final range from 100 to 0.002 μg/ml were prepared. 50 µL culture medium with 2 × 10^5 amastigotes from axenic culture were added to each well. After 70 h of incubation the plates were inspected under an inverted microscope to assure growth of the controls and sterile conditions. 10 μl of resazurin (12.5 mg resazurin dissolved in 100 ml distilled water) were added to each well and the plates incubated for another 2 h. Then the plates were read with a Spectramax Gemini XS microplate fluorometer (Molecular Devices Cooperation, Sunnyvale, CA, USA) using an excitation wavelength of 536 nm and an emission wavelength of 588 nm. Data were analyzed using the software Softmax Pro (Molecular Devices Cooperation, Sunnyvale, CA, USA). Decrease of fluorescence (= inhibition) was expressed as percentage of the fluorescence of untreated control cultures and plotted against the drug concentrations. From the sigmoidal inhibition curves the IC50 values were calculated. Miltefosine was used as positive control drug. Assays were performed in two independent replicates at least.

[6] = test system: L-6 cells (rat skeletal myoblasts); experiment: In vitro cytotoxicity with L-6 cells (resazurin); assay type: cell-based; settings: 70 h + 2 h resazurin, mean ± absolute deviation
Procedure: (§2) Assays were performed in 96-well microtiter plates, each well containing 100 µl of RPMI 1640 medium supplemented with 1% L-glutamine (200 mM) and 10% fetal bovine serum, and 4000 L-6 cells (a primary cell line derived from rat skeletal myoblasts) ([Ahmed et al., 1994]). Serial drug dilutions of 11 three-fold dilution steps covering a range from 100 to 0.002 μg/ml were prepared 24 h post seeding L-6 cells. The plates were incubated for 70 h and inspected under an inverted microscope to assure growth of the controls and sterile conditions. 10 µl of resazurin was then added to each well and the plates incubated for another 2 h. Then the plates were read with a Spectramax Gemini XS microplate fluorometer (Molecular Devices Cooperation, Sunnyvale, CA, USA) using an excitation wavelength of 536 nm and an emission wavelength of 588 nm. The IC50 values were calculated by linear regression and four-parameter logistic regression from the sigmoidal dose inhibition curves using SoftmaxPro software (Molecular Devices Cooperation, Sunnyvale, CA, USA). Podophyllotoxin (Sigma P4405) was used as positive control. All assays were performed in two independent replicates at least. Activities of all compounds were expressed in µM using the formula: […]

[7] = In vitro cytotoxicity with L-6 cells (resazurin); assay type: cell-based, rat; settings: rat; L6 cells, 70 h + 2 h resazurin; mean ± absolute deviation
Procedure: as §2

[8] = amastigotes in mouse peritoneal macrophages
[9] = pH 5.4, axenic amastigotes, MHOM/ET/67/L82, pH 5.4, 70 h + 2 h resazurin, read-out: IC50 L. donovani Axenic
[10] = Plasmodium falciparum, NF54, 72 h, read-out: IC50 P. falciparum, NF54 drug sensitive strain, erythrocytic stages, 72 h

IC50 ([1]; NF54 drug sensitive strain, erythrocytic stages, 72 h, read-out: IC50 P. falciparum) [µM]	IC50 ([1]; Plasmodium falciparum, NF54, 72 h, NF54 drug sensitive strain, erythrocytic stages, 72 h, read-out: IC50 P. falciparum) [µM]	SMILES	Selectivity index (SI): IC50 in L6 cells divided by IC50 in P. falciparum [1]	Selectivity index (SI): IC50 in L6 cells divided by IC50 in T. b. rhodesiense [2]	IC50 [2] [µM]	IC50 at 96 h [3] [µM]	IC50 [4, 8] [µM]	Selectivity index (SI): IC50 in L6 cells divided by IC50 in L. donovani axenic amastigotes [5]	IC50 [5, 9] [µM]	IC50 L6 cells (cytotoxicity) [6]	IC50 [1, 10] [µM]	IC50 [4] [µM]	IC50 ([5]; pH 5.4, read-out: IC50 L. donovani Axenic, axenic amastigotes, MHOM/ET/67/L82, pH 5.4, 70 h + 2 h resazurin) [µM]	IC50 at 70 h [7] [µM]	IC50 ([1]; read-out: IC50 P. falciparum, NF54 drug sensitive strain, erythrocytic stages, 72 h) [µM]
18.2 ± 6.7	< 20	COc1ccc(-c2oc3cc(O)cc(O)c3c(=O)c2OC)cc1O [Compound 5, Quercetin-3,4′-dimethylether]	1.1	2.9	6.6 ± 3.2	42.7 ± 12.1	> 33.3	1.3	15 to 22	significant cytotoxicity					
		COc1ccc(C[C@@H]2c3cc(OC)c(OC)cc3CCN2C)cc1O [Compound 8, Laudanine]			> 80	> 200					78.6 ± 0.4	> 292	> 150	292	
		COc1ccc(CC2c3cc(OC)c(OC)cc3CCN2C)cc1OC (centres unmarked) [Compound 9, Laudanosine]			> 80	> 245	> 186		> 150		76.1 ± 21.6			280	
		COc1cc(-c2oc3cc(O)cc(O)c3c(=O)c2O)ccc1O [Compound 11, Isorhamnetin]	6.0	5.0	25.9 ± 5.4	> 199	> 210	6.0	21.7 ± 7.9		~20			130 ± 58.7	21.6 ± 0.7

From article PMC7456963, “HPLC-Based Activity Profiling for Antiprotozoal Compounds in Croton gratissimus and Cuscuta hyalina” (Frontiers in Pharmacology, 2020)
